According to ChEMBL document CHEMBL5150064 (J Med Chem, 2022):
Values after ≈ are worked out from the molar mass of the structure shown. Active and inactive are the calls of the source. The calls are words filed in the database; no cut-off is given here.

What was measured:
Homo sapiens [1] = species: Homo sapiens; assay: Selectivity ratio of Ki for PI3Kdelta (unknown origin) to Ki for PI3Kalpha (unknown origin)
[2] = Kinetic solubility of the compound at pH 7.4; assay type: physicochemical; conditions: buffer, read-out: Kinetic_solubility
[3] = biological target: Phosphatidylinositol 4,5-bisphosphate 3-kinase catalytic subunit alpha isoform (Homo sapiens, UniProt P42336); assay: Inhibition of PI3Kalpha (unknown origin) using PIP2:3PS as substrate in presence of ATP measured after 120 mins by ADP-Glo assay
[4] = Lipophilicity, logD of compound in 1-Octanol/PBS at pH 7.4 by LC-MS/MS method; assay type: physicochemical
[5] = Apparent permeability across apical to basolateral side in MDCK cells at 10 uM measured upto 180 mins by LC-MS/MS method; assay type: ADME, cell-based, Canis lupus familiaris; conditions: dog
[6] = biological target: Phosphatidylinositol 4,5-bisphosphate 3-kinase catalytic subunit alpha isoform (Homo sapiens, UniProt P42336, H1047R)
[7] = Oral bioavailability in Sprague-Dawley rat plasma at 5 mg/kg measured upto 8 hrs by LC-MS/MS method; assay type: ADME, organism-based
Homo sapiens [8] = species: Homo sapiens; assay: Selectivity ratio of EC50 for PI3Kalpha H1047R mutant in human HCC1954 cells assessed as reduction in PRAS40 phosphorylation to EC50 for wild type PI3Kalpha in human HDQ-P1 cells assessed as reduction in PRAS40 phosphorylation; assay type: cell-based
[9] = Clearance in Sprague-Dawley rat plasma at 1 mg/kg, iv measured upto 8 hrs by LC-MS/MS analysis; assay type: ADME, organism-based
[10] = test system: Phosphatidylinositol 4,5-bisphosphate 3-kinase catalytic subunit alpha isoform (Homo sapiens), P42336 [H1047R]; assay: Induction of P110alpha H1047R mutant degradation in human HCC1954 cells at 0.012 to 1 uM after 24 hrs; assay type: cell-based; conditions: dose 0.012-1 µM
Chain of Phosphatidylinositol 4,5-bisphosphate 3-kinase catalytic subunit alpha isoform (Homo sapiens), P42336 [H1047R] (P42336 whole entry H1047R, canonical isoform): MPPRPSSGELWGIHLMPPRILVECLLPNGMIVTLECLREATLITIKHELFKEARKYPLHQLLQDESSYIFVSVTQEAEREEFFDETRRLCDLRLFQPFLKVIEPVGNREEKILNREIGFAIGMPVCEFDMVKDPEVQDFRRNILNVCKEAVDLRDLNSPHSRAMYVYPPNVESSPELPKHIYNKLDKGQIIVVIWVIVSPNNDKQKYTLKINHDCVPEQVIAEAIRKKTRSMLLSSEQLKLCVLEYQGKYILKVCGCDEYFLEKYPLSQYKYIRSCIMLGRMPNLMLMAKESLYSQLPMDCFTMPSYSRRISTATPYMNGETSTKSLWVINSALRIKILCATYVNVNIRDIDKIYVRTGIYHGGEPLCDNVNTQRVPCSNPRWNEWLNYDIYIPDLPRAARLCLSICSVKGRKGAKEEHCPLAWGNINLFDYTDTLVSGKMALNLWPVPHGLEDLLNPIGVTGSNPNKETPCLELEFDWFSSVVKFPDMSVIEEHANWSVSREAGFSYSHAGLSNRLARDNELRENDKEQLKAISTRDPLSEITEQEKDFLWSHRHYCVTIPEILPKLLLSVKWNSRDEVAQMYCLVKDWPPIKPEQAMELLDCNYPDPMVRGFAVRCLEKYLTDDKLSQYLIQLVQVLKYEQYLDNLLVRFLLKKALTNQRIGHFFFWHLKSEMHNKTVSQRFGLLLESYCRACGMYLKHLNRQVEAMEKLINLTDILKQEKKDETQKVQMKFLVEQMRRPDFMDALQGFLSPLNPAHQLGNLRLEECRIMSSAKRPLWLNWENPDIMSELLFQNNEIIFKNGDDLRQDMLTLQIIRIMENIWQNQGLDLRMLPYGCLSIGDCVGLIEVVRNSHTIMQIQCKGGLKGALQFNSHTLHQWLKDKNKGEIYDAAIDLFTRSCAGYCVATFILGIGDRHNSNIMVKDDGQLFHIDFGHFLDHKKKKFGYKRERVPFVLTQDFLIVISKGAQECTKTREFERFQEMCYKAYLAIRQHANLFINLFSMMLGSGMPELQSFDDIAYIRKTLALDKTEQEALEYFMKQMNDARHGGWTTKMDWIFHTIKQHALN

Chain of Phosphatidylinositol 4,5-bisphosphate 3-kinase catalytic subunit alpha isoform (Homo sapiens, UniProt P42336) (P42336 whole entry, canonical isoform): as the sequence (P42336 whole entry H1047R, canonical isoform) above, with R1047H counted along it
Chain of Phosphatidylinositol 4,5-bisphosphate 3-kinase catalytic subunit alpha isoform (Homo sapiens, UniProt P42336, H1047R) (P42336 whole entry H1047R, canonical isoform): as the sequence (P42336 whole entry H1047R, canonical isoform) above

Compound	Ratio Ki (Homo sapiens [1])	solubility kinetic [2]	Ki [3]	logD [4]	Papp A→B at 3 h, 10 µM [5]	EC50 [6]	bioavailability [7]	Ratio EC50 (Homo sapiens [8])	clearance [9]	Activity [10]
NC(=O)[C@@H]1CCCN1c1ccc2c(c1)OCCn1cc(N3CCCOCC3=O)nc1-2	15	11 µM (≈ 4.53 µg/mL)	0.32 nM	0.7						
NC(=O)[C@@H]1COCCN1c1ccc2c(c1)OCCn1cc(N3C(=O)OC[C@H]3C(F)(F)F)nc1-2	13		2.97 nM							
NC(=O)[C@@H]1CCCN1c1ccc2c(c1)OCCn1cc(N3C(=O)CC[C@H]3C(F)(F)F)nc1-2			0.8 nM	1.6						
CC(C)n1nc(N)nc1-c1cn2c(n1)-c1ccc(N3CCC[C@H]3C(N)=O)cc1OCC2	8	92 µM (≈ 38.9 µg/mL)	0.026 nM	1.5	0.3 ×10⁻⁶ cm/s					
NC(=O)[C@@H]1CCCN1c1ccc2c(c1)OCCn1cc(N3CCOC3=O)nc1-2	15	200 µM (≈ 76.7 µg/mL)	5.75 nM	0.6	3.1 ×10⁻⁶ cm/s					
CO[C@H]1CCN(c2cn3c(n2)-c2ccc(N4CCC[C@H]4C(N)=O)cc2OCC3)C1=O	4	154 µM (≈ 63.4 µg/mL)	3.15 nM	0.9	2.6 ×10⁻⁶ cm/s					
CC(C)[C@@H]1COC(=O)N1c1cn2c(n1)-c1ccc(N3CCC[C@H]3C(N)=O)cc1OCC2	22	131 µM (≈ 55.7 µg/mL)	0.042 nM	1.8	8.4 ×10⁻⁶ cm/s					
NC(=O)[C@@H](Nc1ccc2c(c1)OCCn1cc(N3C(=O)OC[C@H]3C(F)(F)F)nc1-2)C1CCC1	182		0.323 nM							
NC(=O)[C@@H]1CCCN1c1ccc2c(c1)OCCn1cc(N3CCn4nccc4C3=O)nc1-2	7	2 µM (≈ 0.867 µg/mL)	0.44 nM	1.2						
C[C@H](Oc1ccc2c(c1)OCCn1cc(-c3nc(CO)nn3CC(F)(F)F)nc1-2)C(N)=O	15		0.062 nM	1.5	1.5 ×10⁻⁶ cm/s	39 nM	5%	9.5	50 mL/min/kg	
C[C@H](Oc1ccc2c(c1)OCCn1cc(N3C(=O)OC[C@H]3C(F)F)nc1-2)C(N)=O	52									
CC1(C)C(=O)NC(=O)N1c1cn2c(n1)-c1ccc(N3CCC[C@H]3C(N)=O)cc1OCC2	5	114 µM (≈ 48.4 µg/mL)	0.681 nM	0.7	0.3 ×10⁻⁶ cm/s					
NC(=O)[C@@H]1CCCN1c1ccc2c(c1)OCCn1cc(N3CCOCC3=O)nc1-2	8	65 µM (≈ 25.8 µg/mL)	2.52 nM	0.7						
CO[C@@H]1CCN(c2ccc3c(c2)OCCn2cc(N4C(=O)OC[C@H]4C(F)(F)F)nc2-3)[C@@H]1C(N)=O	27		0.097 nM							
CC(C)[C@H](Nc1ccc2c(c1)OCCn1cc(N3C(=O)OC[C@H]3C(F)(F)F)nc1-2)C(N)=O	94		0.692 nM	1.7	1.9 ×10⁻⁶ cm/s	157 nM	137%	2.3	61 mL/min/kg	
NC(=O)[C@@H]1CCCN1c1ccc2c(c1)OCCn1cc(N3CCOCCC3=O)nc1-2	6	44 µM (≈ 18.1 µg/mL)	3.82 nM	0.7						
C[C@H](Oc1ccc2c(c1)OCCn1cc(-c3ncnn3CC(F)(F)F)nc1-2)C(N)=O	14			2.2						
NC(=O)[C@@H]1CCCN1c1ccc2c(c1)OCCn1cc(N3C(=O)OC[C@H]3C(F)(F)F)nc1-2	15	130 µM (≈ 58.7 µg/mL)	0.15 nM	1.4	3.2 ×10⁻⁶ cm/s	40 nM	57%		35 mL/min/kg	Active
C[C@@H]1COC(=O)N1c1cn2c(n1)-c1ccc(N3CCC[C@H]3C(N)=O)cc1OCC2	24	150 µM (≈ 59.6 µg/mL)		0.7	2.1 ×10⁻⁶ cm/s		59%		23 mL/min/kg	
NC(=O)[C@@H]1[C@H](F)CCN1c1ccc2c(c1)OCCn1cc(N3C(=O)OC[C@H]3C(F)(F)F)nc1-2	25		0.289 nM							
C[C@H](Nc1ccc2c(c1)OCCn1cc(N3C(=O)OC[C@H]3C(F)(F)F)nc1-2)C(N)=O	171		0.095 nM	0.9	1 ×10⁻⁶ cm/s	49 nM	65%	2.7	57 mL/min/kg	
CC(C)n1nc(N)nc1-c1cn2c(n1)-c1ccc(O[C@@H](C)C(N)=O)cc1OCC2	17		0.107 nM	1.1	0.5 ×10⁻⁶ cm/s	65 nM		3.1		
NC(=O)[C@@H](Nc1ccc2c(c1)OCCn1cc(N3C(=O)OC[C@H]3CF)nc1-2)C1CC1				0.7	0.8 ×10⁻⁶ cm/s				63 mL/min/kg	
C[C@H]1CN(c2cn3c(n2)-c2ccc(N4CCC[C@H]4C(N)=O)cc2OCC3)C(=O)O1	6	20 µM (≈ 7.95 µg/mL)	6.49 nM	1.1						
CC[C@H](Nc1ccc2c(c1)OCCn1cc(N3C(=O)OC[C@H]3C(F)(F)F)nc1-2)C(N)=O	146		0.157 nM	1.4	1.7 ×10⁻⁶ cm/s	56 nM	82%	3.6	91 mL/min/kg	
C[C@@H]1CN(c2cn3c(n2)-c2ccc(N4CCC[C@H]4C(N)=O)cc2OCC3)C(=O)O1	15	52 µM (≈ 20.7 µg/mL)	11.5 nM	1.1						
NC(=O)[C@@H]1CCCN1c1ccc2c(c1)OCCn1cc(N3CCCOC3=O)nc1-2	9		30.3 nM							
COC[C@@H]1COC(=O)N1c1cn2c(n1)-c1ccc(N3CCC[C@H]3C(N)=O)cc1OCC2	8	137 µM (≈ 58.6 µg/mL)	3.24 nM	0.8						
